What all share (experiment): inhibition of tumour cell growth, NCI panel, 48 h
Experiment [1] has as its system UACC-62 melanoma.
The subject of experiment [2] is KM12 colon.
For experiment [3], the system named is NCI-H23 lung.
For experiment [4], the system named is SN12C renal.
Experiment [5] relates to DU-145 prostate.
Experiment [6] deals with SF-539 CNS.
Experiment [7] has as its system SK-MEL-2 melanoma.
For experiment [8], the system named is SNB-75 CNS.
Experiment [9] deals with ACHN renal.
Experiment [10] concerns A549 NSCLC.

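Compound exposure: 48 hours, 5 concentrations, 96-well plates. Here, GI50 denotes the concentration required for 50% inhibition of growth. TGI denotes the concentration required for complete inhibition of growth.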

As to `COc1ccc(-c2nc3ccc(-c4nc5ccc(N6CCN(c7ccccc7)CC6)cc5[nH]4)cc3[nH]2)cc1OC`, the GI50 is 1.41 µM in [1]; 1.84 µM in experiment [2]; 1.77 µM in experiment [3]; 5.98 µM in experiment [4]; 1.83 µM in [5]; 1.37 µM in [6]. For the same molecule, the GI50 in experiment [7] is 2.04 µM; in experiment [8] it was 1.06 µM; in experiment [9], 2.28 µM; in experiment [10], 2.03 µM. Also, the TGI in experiment [1] was determined as 3.63 µM; in [2], 4.01 µM; in [3], 3.66 µM; in experiment [4] it was 18.6 µM; in experiment [5] it was 3.46 µM; in [6] it was 2.81 µM. The TGI in experiment [7] turned out to be 4.07 µM; in experiment [8], 3.8 µM; in experiment [9], 10.2 µM; in experiment [10], 6.73 µM.
As for `CCCC(=O)Nc1cc2c3c(c1)CCCN3CCC2`, the TGI in experiment [1], in experiment [2], in experiment [3], in experiment [4], in experiment [5] and in experiment [6] was over 10 µM in each case. Moreover, the TGI in experiment [8], in [9] and in experiment [10] was over 10 µM each time.
As for `COc1cc2c(cc1OCCCNC(=O)c1cccc3c(=O)c4ccccc4[nH]c13)N=C[C@@H]1CCCN1C2=O`, the GI50 in experiment [1] was under 0.01 µM; in experiment [3], under 0.01 µM; in experiment [4] it was under 0.01 µM; in [5] it was under 0.01 µM; in experiment [6], under 0.01 µM; in [7], 2.37 µM. The GI50 in [9] was 0.0197 µM; in experiment [10], 0.0202 µM. The TGI in experiment [1] is under 0.01 µM; in experiment [2], 13.2 µM; in experiment [3], under 0.0225 µM; in experiment [4], under 0.0126 µM; in experiment [5], 13.5 µM; in [6], under 0.01 µM. For the same molecule, the figures for the TGI in [7], in experiment [9] and in experiment [10] were 4.82 µM, over 100 µM and over 100 µM, respectively.
`C[C@@H]1CC[C@@H]2[C@@H]1[C@H](OC(=O)/C=C/c1ccccc1)[C@]1(C3CCCCC3)C[C@@H](OC(=O)CO)[C@@]2(C)O1`: the GI50 in experiment [1] was 3.11 µM; in experiment [2], 3.1 µM; in [3], 3.88 µM; in [4], 0.086 µM; in experiment [5], 3.99 µM; in [6], 5.48 µM. The GI50 in [7] was 4.03 µM; in experiment [8] it was 1.09 µM; in experiment [10], 4.03 µM. Also, the TGI in experiment [1] stood at 10.1 µM; in [2], 10.8 µM; in experiment [3], 14.8 µM; in experiment [4] it was 3.56 µM; in experiment [5] it was 14.7 µM; in experiment [6], 18.5 µM. The TGI in experiment [7] was 16.1 µM; in [8], 14.7 µM; in experiment [10] it was 14.1 µM.
For the molecule `COc1cccc2c1C(=O)c1c(O)c3c(c(O)c1C2=O)C[C@](O)(C(=O)CO)C[C@H]3O[C@@H]1C[C@@H](NC(=O)CCCCCN(C)C2(c3ccc(F)cc3)CC3CCC2C3)[C@H](O)[C@@H](C)O1` (some centres not stated), the GI50 in [1] was 6.56 µM; in experiment [3], 3.49 µM; in experiment [4], 5.75 µM; in experiment [5], 1.13 µM; in experiment [6] it was 3.67 µM; in experiment [7], 1.18 µM. For the same molecule, the figures for the GI50 in [8] and in experiment [9] were 3.28 µM and 1.75 µM, respectively. Also, the TGI was determined as 15.7 µM in experiment [1]; 10.7 µM in experiment [3]; 14.5 µM in experiment [4]; 4.24 µM in experiment [5]; 10.3 µM in experiment [6]; 2.52 µM in experiment [7]. Also, the results for the TGI in experiment [8] and in experiment [9] were 11.2 µM and 6.66 µM, respectively.
As to `COc1ccc(C(=O)/C=C/c2cc(-c3cc(OC)c(OC)c(OC)c3)n[nH]2)cc1OC`, the GI50 in experiment [1] is 1.74 µM; in experiment [2], 1.07 µM; in [3] it was 2.15 µM; in [4], 1.54 µM; in experiment [5] it was 0.55 µM; in experiment [6] it was 1.27 µM. In addition, the GI50 is 1.85 µM in experiment [7], 1.66 µM in [9] and 1.86 µM in experiment [10]. Further, the TGI in experiment [1] is 3.22 µM; in experiment [2] it was 2.41 µM; in [3], 5.24 µM; in experiment [4], 3.13 µM; in experiment [5], 1.84 µM; in [6] it was 2.6 µM. The TGI worked out at 3.51 µM in experiment [7], 3.09 µM in experiment [9] and 4.59 µM in experiment [10].
As for `CN(C)CC[PH+](c1ccccc1)c1ccccc1.CN(C)CC[PH+](c1ccccc1)c1ccccc1.[Cl-].[Pd+2]`, the GI50 in experiment [1], in experiment [2], in experiment [3], in experiment [4], in experiment [5] and in [6] was over 100 µM in each case. The GI50 in experiment [9] and in experiment [10] was over 100 µM throughout. Moreover, the TGI in experiment [1], in [2], in [3], in experiment [4], in experiment [5] and in experiment [6] was over 100 µM throughout. Besides, the TGI in experiment [9] and in experiment [10] was over 100 µM each time.
For `COc1cc(-c2cc(-c3cc4c([nH]c5ccccc54)c(-c4cc(OC)c(OC)c(OC)c4)n3)cc(-c3ccccc3)n2)cc(OC)c1OC`, the GI50 in experiment [1] is 2.9 µM; in experiment [2] it was 4.09 µM; in experiment [3] it was 5.52 µM; in experiment [4], 4.08 µM; in [5], 11 µM; in experiment [6] it was 4.97 µM. Moreover, the figures for the GI50 in experiment [7], in experiment [9] and in experiment [10] were 2.58 µM, 4.57 µM and 3.4 µM, respectively. The TGI in [1] was 18 µM; in experiment [2], over 100 µM; in experiment [3], over 100 µM; in experiment [4], over 100 µM; in experiment [5], over 100 µM; in experiment [6], 44.4 µM. Also, the TGI is 6.36 µM in experiment [7], over 100 µM in experiment [9] and 80.9 µM in experiment [10].

The values are drawn from PubChem BioAssay (NCI).
